The assay addresses T1, GCN2 (Homo sapiens, UniProt Q9P2K8).
T1 construct: gene EIF2AK4; recombinant human GCN2, N-terminal twin StrepII tag, expressed in Sf9 cells
The assay is described as follows: ADP-Glo kinase assay with purified GCN2 (biphasic: activation EC50 […], inhibition IC50 […]); supported by thermal unfolding (-2.[…] °C shift) and in vitro autophosphorylation. In kind it is biochemical. Background: ADP-Glo turns the ADP formed in a reaction into a luminescent signal.

The structures appear in SMILES notation. pEC50: −log10 of the molar value.

T1 sequence (Q9P2K8 whole entry): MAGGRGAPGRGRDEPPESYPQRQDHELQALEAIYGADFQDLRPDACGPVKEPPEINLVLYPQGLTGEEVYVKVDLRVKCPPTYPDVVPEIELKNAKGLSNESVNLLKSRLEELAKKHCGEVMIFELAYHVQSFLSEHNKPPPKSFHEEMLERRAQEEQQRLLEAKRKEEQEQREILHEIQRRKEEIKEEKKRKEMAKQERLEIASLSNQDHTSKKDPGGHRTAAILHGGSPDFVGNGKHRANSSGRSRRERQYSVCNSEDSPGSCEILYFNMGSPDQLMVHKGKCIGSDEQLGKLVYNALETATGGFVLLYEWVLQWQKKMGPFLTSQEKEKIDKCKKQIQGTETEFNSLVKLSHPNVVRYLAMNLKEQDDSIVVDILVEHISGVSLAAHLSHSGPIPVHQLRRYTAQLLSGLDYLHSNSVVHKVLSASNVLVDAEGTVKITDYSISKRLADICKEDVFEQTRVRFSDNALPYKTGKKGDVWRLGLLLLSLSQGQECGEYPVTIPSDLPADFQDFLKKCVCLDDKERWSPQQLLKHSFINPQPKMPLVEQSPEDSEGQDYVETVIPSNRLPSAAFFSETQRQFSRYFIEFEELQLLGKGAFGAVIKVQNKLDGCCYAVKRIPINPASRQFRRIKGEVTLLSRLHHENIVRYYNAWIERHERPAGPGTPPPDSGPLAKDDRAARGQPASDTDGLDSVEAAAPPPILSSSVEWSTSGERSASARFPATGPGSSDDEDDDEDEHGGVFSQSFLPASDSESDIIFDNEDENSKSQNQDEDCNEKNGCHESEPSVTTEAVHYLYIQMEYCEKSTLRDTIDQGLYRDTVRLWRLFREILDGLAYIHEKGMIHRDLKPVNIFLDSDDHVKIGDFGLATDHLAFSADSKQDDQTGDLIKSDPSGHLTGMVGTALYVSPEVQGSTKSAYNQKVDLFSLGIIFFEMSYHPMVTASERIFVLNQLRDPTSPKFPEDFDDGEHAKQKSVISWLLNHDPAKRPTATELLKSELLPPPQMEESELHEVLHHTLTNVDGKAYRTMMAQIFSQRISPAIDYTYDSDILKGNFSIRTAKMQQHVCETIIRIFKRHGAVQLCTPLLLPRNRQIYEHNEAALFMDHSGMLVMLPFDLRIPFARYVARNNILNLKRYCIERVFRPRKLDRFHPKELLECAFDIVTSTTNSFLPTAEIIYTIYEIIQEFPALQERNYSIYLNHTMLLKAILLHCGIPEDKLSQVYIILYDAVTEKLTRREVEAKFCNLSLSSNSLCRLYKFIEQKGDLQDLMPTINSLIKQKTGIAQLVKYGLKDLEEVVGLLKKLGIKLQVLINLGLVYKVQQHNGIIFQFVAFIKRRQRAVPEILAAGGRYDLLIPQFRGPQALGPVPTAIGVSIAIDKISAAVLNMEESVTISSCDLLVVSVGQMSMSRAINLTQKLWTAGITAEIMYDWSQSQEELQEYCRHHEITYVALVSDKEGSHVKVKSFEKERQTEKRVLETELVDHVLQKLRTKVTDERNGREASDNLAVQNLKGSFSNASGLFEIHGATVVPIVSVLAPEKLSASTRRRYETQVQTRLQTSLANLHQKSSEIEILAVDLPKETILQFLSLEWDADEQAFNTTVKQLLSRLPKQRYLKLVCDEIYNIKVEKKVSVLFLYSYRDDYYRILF

As to `C=CCn1c(=O)c2cnc(Nc3ccc(N4CCN(C)CC4)cc3)nc2n1-c1cccc(C(C)(C)O)n1` [AZD1775], the negative logarithm of the EC50 (pEC50) is 7.80.

What is called pEC50 is −log10 of the EC50, conventionally taken in molar units.

For the origin of these results see publication PMC12511557, “WEE1 inhibitors synergise with mRNA translation defects via activation of the kinase GCN2” (Nature Communications, 2025).
